# Assay results published in patent US20100120848A1, “STABLE PHARMACEUTICAL FORMULATIONS OF MONTELUKAST SODIUM” (Teva Pharmaceutical Industries Ltd., priority 2006, published 2010).
# Assay: Excipient compatibility: montelukast sodium/excipient mixtures stored at 55° C. for 48 hours, sulfoxide of formula (I) by HPLC
# Assay type: physicochemical
# Conditions: for % Sulfoxide of Formula (I), 0 hours: by weight relative to montelukast sodium, before storage
# Experimental: Comparative testing with montelukast sodium was performed to determine the conditions which cause the degradation of montelukast sodium into the corresponding sulfoxide. Compositions of montelukast sodium and each of the excipients of the prior art tablets were prepared and subjected to stressed storage conditions. The amount of the corresponding sulfoxide present in each of the compositions was measured by high performance liquid chromatography (“HPLC”) both before and after storage.
# Sample mixtures of montelukast sodium and each of the individual excipients were prepared. Each sample was stored at 55° C. for 48 hours. The percentage by weight of sulfoxide of formula (I) relative to montelukast sodium in each sample was measured at 0 hours and at 48 hours by HPLC. HPLC was performed on a Beta-Basic C18 analytical column (150×4.6 mm I.D.), packed with 5 μm diameter particles (Thermo Election Corporation). The mobile phase was a mixture of acetonitrile and 20 mM KH2PO4 (60:40) and its flow-rate was 1.5 mL/min. The UV detector was set at 225 nm or 281 nm and the column temperature was 40° C.
SMILES,"% Sulfoxide of Formula (I), 0 hours [%]","increase of the amount of the corresponding sulfoxide in the composition over the storage period (in the presence of microcrystalline cellulose, stressed storage conditions)"
"CC(C)(O)c1ccccc1CC[C@@H](SCC1(CC(=O)[O-])CC1)c1cccc(/C=C/c2ccc3ccc(Cl)cc3n2)c1.[Na+] [Sample 1, Montelukast sodium]",0.63,
"CC(C)(O)c1ccccc1CC[C@@H](SCC1(CC(=O)[O-])CC1)c1cccc(/C=C/c2ccc3ccc(Cl)cc3n2)c1.[Na+] [Sample 7, Montelukast sodium]",0.26,
"CC(C)(O)c1ccccc1CC[C@@H](SCC1(CC(=O)[O-])CC1)c1cccc(/C=C/c2ccc3ccc(Cl)cc3n2)c1.[Na+] [montelukast sodium, [R-(E)]-1-[[[1-[3-[2-(7-chloro-2-quinolinyl)ethenyl]phenyl]-3-[2-(1-hydroxy-1-methylethyl)phenyl]propyl]thio]methyl]cyclopropaneacetic acid, monosodium salt]",,over 250%
